Experimental data from patent US11160808B2, “Compounds that enhance Atoh1 expression” (Massachusetts Eye & Ear Infirmary, priority 2008, dated 2021).

How the values were obtained:
Math1 mRNA = Math1 mRNA expression by RT-PCR in HEK cells; type: cell-based, human; settings: among the four randomly selected compounds
Experimental: (§1) Ten compounds, randomly selected from the group of 110 compounds identified in Example 2, were further evaluated, as follows. HEK cells were plated on 96 well plates at a density of 100000 cells per well. One day after plating, 0.1, 1, and 5 μM of each positive compound was added per well in a 10% fetal bovine serum (FBS) DMEM solution. Cells were then lysed 48 hours after addition of the compound and Math1 expression was analyzed using a luciferase reporter assay, as described above, and real-time PCR.
RNA was also isolated and Math1 transcripts were amplified using high-throughput RT-PCR.

[1] = LD50 (median lethal dose) determination; type: cell-based
Description: IC50 is a measure of the effectiveness of a compound in inhibiting biological or biochemical function. LD50 is the amount of a compound required to kill half the members of a tested population.

[2] = tested on: Math1 enhancer and minimal promoter Luciferase reporter in HEK cells; experiment: Math1 Luciferase reporter assay in HEK cells; type: cell-based, human; settings: Homo sapiens, HEK293; for IC50: read-out: IC50; for maximal fold induction: read-out: Maximum (Fold DMSO)
Description: A human embryonic kidney (HEK) cell line stably expressing a Luciferase gene controlled by an Math1 enhancer and minimal promoter was used in a high-throughput screen (HTS) of 144,000 small molecules to identify compounds that increase Math1 expression (i.e., transcription and/or translation). Such compounds can be used to increase the conversion of stem cells, progenitor cells, and support cells to or towards a hair cell. Screens to identify such compounds are described by Li et al., (U.S. Publication No. 2005/0287127) and Li et al., (U.S. application Ser. No. 11/953,797).
HEK cells stably expressing the Math1 Luciferase reporter were plated onto 384 well plates and cultured overnight in medium containing 10% fetal calf serum (FCS). Activation of the Math1 enhancer was measured by the increase in luminescence on a plate reader following addition of a luciferase detection agent. The assay was optimized for cell number, time of incubation, volume of medium, cell lysis reagent and luciferase reagent. Luminescence levels were compared in cells with the Math1-luciferase construct with and without retinoic acid (1 μM), and/or a luciferase construct with and without the Math1 enhancer and minimal promoter region.
To improve assay sensitivity, and reduce the coefficient of variation (CV), a more sensitive luciferase reagent (BriteLite luciferase reporter assay reagent, Perkin Elmer) was used, and Triton-X-100 was added to the lysis reagent to ensure complete lysis of the cells. Following these changes a CV of 4.2% was recorded. These conditions were used for all high-throughput screens. The luminescence threshold for a compound to be positive was defined as a 2-fold increase above the control (e.g., cells exposed to DMSO).
Cells were seeded on 384 well plates and allowed to attach overnight at 37° C. with 5% CO2 in the absence of growth factors. Math1 activation was measured by the increase in luminescence on a plate reader following addition of a luciferase detection reagent. Luminescence was assessed at 24, 48, and 72 hours. These conditions were used to screen 144,000 compounds contained in the small molecule libraries at Harvard University's Laboratory for Drug Discovery in Neurodegeneration (LDDN).
HTS were performed using HEK-Math1 cells seeded in 384 well plates. One compound was added per well using pin transfer. The final concentration of each compound was […]. Cell were incubated in the presence of a compound for 48 hours at 37° C. with 5% CO2. Cell lysates then were collected and bioluminescence determined. Luminescence values were compared normalized against DMSO.
About 20000 compounds were screened per week in 50 plates of 384 well with the aid of robotic systems (Beckman Biomek FX). Compounds were screened at an average final concentration of 0.7 μM (in 0.04% DMSO) with each plate containing 16 wells of 1 μM retinoic acid, as a positive control, and 16 wells of 0.04% DMSO, as a vehicle control. Percent activation of luminescence in the test compounds was determined for cells treated with the compounds against cells treated with DMSO.
as §1
The half maximal inhibitory concentration (IC50) and median lethal dose or Lethal Dose, 50% (LD50) were determined for each of the compounds identified in Example 2 using standard laboratory techniques. IC50 is a measure of the effectiveness of a compound in inhibiting biological or biochemical function. LD50 is the amount of a compound required to kill half the members of a tested population.

| SMILES | increase in Math1 mRNA expression (ranking in words) (Math1 mRNA) | LD50 [1] [µM] | IC50 [2] [µM] | maximal fold induction [2] |
| --- | --- | --- | --- | --- |
| COc1ccc(-c2nc3ccccc3n2CCc2ccccc2)cc1 [CP-0193184, 2-(4-methoxyphenyl)-1-phenethyl-1H-benzo[d]imidazole] | highest increase | >30 | > 10 |  |
| O=C(NCCOc1ccc(F)cc1)c1cccs1 [CP-0072271, N-(2-(4-fluorophenoxy)ethyl)thio-phene-2-carboxamide] |  | >10 | 1 | 2.2 |
| CCc1c(C)[nH]c2cc(-c3ccc(Cl)cc3)nn2c1=O [CP-0063375, 2-(4-chlorophenyl)-6-ethyl-5-methylpyrazolo[1,5-a]pyrimidin-7(4H)-one] |  | >10 | 2.2 | 1.9 |
| Oc1ccc(-c2nc3ccccc3[nH]2)cc1 [CP-0047659, 4-(1H-benzo[d]imidazol-2-yl)phenol] |  | >10 | 1.3 | 2.3 |
| Cc1cccc(/C(N)=N/OC(=O)c2cccnc2)c1 [CP-0069934, (Z)-3-methyl-N′-(nicotinoyloxy) benzimidamide] |  | >10 | 2 | 1.7 |
| CC(C)COc1ccc(C2Nc3ccccc3C(=O)N2c2ccc3ccccc3c2)cc1 (stereo not drawn) [CP-0034360, 2-(4-isobutoxyphenyl)-3-(naphthalen-2-yl)-2,3-dihydroquinazolin-4(1H)-one] |  | >10 | 1 | 2 |
| Cc1ccc(-c2noc(CN3CCCCC3)n2)cc1 [CP-0070164, 5-(piperidin-1-ylmethyl)-3-p-tolyl-1,2,4-oxadiazole] |  | >10 | 1.6 | 1.7 |
| COc1ccccc1OCc1nc2ccccc2[nH]1 [CP-0069961, 2-((2-methoxyphenoxy)methyl)-1H-benzo[d]imidazole] |  | >10 | 2 | 1.7 |
| Clc1ccc2oc(-c3ccccc3)nc2c1 [CP-0079983, 5-chloro-2-phenylbenzo[d]oxazole] |  | >10 | 3 | 1.8 |
| c1ccc2cc(-c3cc4ccccc4[nH]3)ccc2c1 [CP-0010539, 2-(naphthalen-2-yl)-1H-indole] |  | >10 | 0.5 | 2.1 |
| O=C(Cn1nnc2ccccc21)NC1Cc2ccccc2C1 [CP-0009883, 2-(1H-benzo[d][1,2,3]triazol-1-yl)-N-(2,3-dihydro-1H-inden-2-yl)acetamide] |  | >10 | 2.5 | 2.3 |
| NC(=O)c1c(NC(=O)c2cc3ccccc3o2)sc2c1CCC2 [CP-0087336, N-(3-carbamoyl-5,6-dihydro-4H-cyclopenta[b]thiophen-2-yl)benzofuran-2-carboxamide] |  | >10 | 0.08 | 2.2 |
| COc1ccc(-c2ccc3c(n2)CCCN3)cc1 [CP-0080276, 6-(4-methoxyphenyl)-1,2,3,4-tetrahydro-1,5-naphthyridine] |  | >10 | 0.3 | 2 |
| O=C(NNC(=S)Nc1ccc(F)cc1)c1ccccc1Cl [CP-0005186, 2-(2-chlorobenzoyl)-N-(4-fluorophenyl)hydrazine-carbothioamide] |  | >10 | 1 | 1.8 |
| CN(C)c1ccc(C2NN=C(c3ccc(Cl)cc3)N2)cc1 (stereo not drawn) [CP-0007994, 4-(3-(4-chlorophenyl)-4,5-dihydro-1H-1,2,4-triazol-5-yl)-N,N-dimethylaniline] |  | >10 | 1 | 1.9 |
| Cn1nccc1C(=O)Nc1nc2ccccc2s1 [CP-0067233, N-(benzo[d]thiazol-2-yl)-1-methyl-1H-pyrazole-5-carboxamide] |  | >10 | 2 | 1.8 |
| O=C(Nc1ccc(Cl)cn1)c1sc2ccccc2c1Cl [CP-0064314, 3-chloro-N-(5-chloropyridin-2-yl)benzo[b]thiophene-2-carboxamide] |  | >10 | > 10 | 1.7 |
| CCN(CC)C(=O)c1cc2cc3cc(OC)ccc3nc2s1 [CP-0076627, N,N-diethyl-6-methoxythieno [2,3-b]quinoline-2-carboxamide] |  | >10 | 5 | 2.2 |
| NC(=O)c1sc2nc3c(cc2c1N)CCCCC3 [CP-0066751, 3-amino-6,7,8,9-tetrahydro-5H-cyclohepta[e]thieno[2,3-b]pyridine-2-carboxamide] |  | >10 | 1 | 1.9 |
| c1ccc(OCc2nc(-c3ccccn3)no2)cc1 [CP-0068395, 5-(phenoxymethyl)-3-(pyridin-2-yl)-1,2,4-oxadiazole] |  | >10 | 3 | 1.6 |
| Cc1cc(Cl)ccc1OCc1nc(-c2ccncc2)no1 [CP-0067108, 5-((4-chloro-2-methylphenoxy)methyl)-3-(pyridin-4-yl)-1,2,4-oxadiazole] |  | >10 | 3 | 1.8 |
| CCN(CC)c1ncnc2c1cnn2-c1cccc(C)c1 [CP-0079810, N,N-diethyl-1-m-tolyl-1H-pyrazolo[3,4-d]pyrimidin-4-amine] |  | >10 | 3 | 2.3 |
| O=C(COc1ccccc1)N1CCc2ccccc21 [CP-0110644, 1-(indolin-1-yl)-2-phenoxyethanone] |  | >10 | 1 | 1.8 |
| Brc1ccc(-c2nc(-c3cccnc3)no2)cc1 [CP-0070367, 5-(4-bromophenyl)-3-(pyridin-3-yl)-1,2,4-oxadiazole] |  | >10 | 2 | 1.7 |
| Cn1c(CCc2ccc(N)cc2)nc2ccccc21 [CP-0066829, 4-(2-(1-methyl-1H-benzo[d]imidazol-2-yl)ethyl)aniline] |  | >10 | 1 | 1.8 |
| CC(C)Oc1ccc(C(=O)Nc2sccc2C#N)cc1 [CP-0110352, N-(3-cyanothiophen-2-yl)-4-isopropoxybenzamide] |  | >10 | 0.05 | 1.8 |
| O=C(CSc1nc2ccccc2c(=O)n1NC(=O)c1ccccc1)c1ccc(F)cc1 [CP-0036187, N-(2-(2-(4-fluorophenyl)-2-oxoethylthio)-4-oxoquinazolin-3(4H)-yl)benzamide] |  | >10 | 1 | 2.3 |
| COc1ccc(-c2cc(-c3ccccc3)[nH]n2)c(O)c1 [CP-0064231, 5-methoxy-2-(5-phenyl-1H-pyrazol-3-yl)phenol] |  | >10 | 1 | 1.5 |
| COc1cccc(C(=O)Nc2nc3ccc(F)cc3s2)c1 [CP-0107060, N-(6-fluorobenzo[d]thiazol-2-yl)-3-methoxybenzamide] |  | >10 | 0.1 | 2.2 |
